Assay results from US12371430B2, “5-morpholin-4-yl-pyrazolo[4,3-b]pyridine derivatives” (Merck Patent GmbH, priority 2018, dated 2025).

Key:
[1] = target: Kv11.1 (hERG) ion channel (Homo sapiens (Human), UniProt Q12809); test: Kv11.1 (hERG) ion channel activity, whole cell patch clamp in HEK293; type: cell-based; details: for Ki: heading: hERG Ki, HEK293 cells stably expressing hERG, patch clamp
Protocol: Kv11.1 (hERG) Ion Channel Activity
In this assay, a potential in vitro effect of test compounds on the Kv11.1 (hERG) ion channel current is investigated which mediates the rapidly activating, delayed rectifier cardiac potassium current (IKr). The assay is performed with a stable Kv11.1 (hERG) transfected human embryonic kidney cell line (HEK293) by whole cell patch clamp technique carried out at room temperature.
The Kv11.1 (hERG) ion channel blocker quinidine is used as reference compound. The effects of the test compounds and quinidine are normalized to the corresponding vehicle control. The whole cell recordings are carried out with an automated patch clamp device Patchliner™, Nanion Technologies, Munich). Hereby the Patch Clamp measurements run on silicate-coated chips with a hole of a defined diameter. Solutions, cell suspension and compounds are applied by a Teflon-laminated pipette needle through microfluidic silicate-laminated channels. Commercial patch clamp amplifiers (EPC10, HEKA Elektronik Dr. Schulze GmbH, Germany) are used for the patch clamp recordings. HEK293 cells stably expressing the hERG gene are held at −80 mV. Steady-state inhibition of Kv11.1 (hERG) potassium current due to test/reference compound application is measured using a pulse pattern with fixed amplitudes: 51 ms/−80 mV, 500 ms/+40 mV, 500 ms/−40 mV, 200 ms/−80 mV. The hERG-specific voltage protocol is repeated at 10 s intervals. The leak current is subtracted by a P4 leak subtraction. Cells are resuspended in extracellular patch clamp solution (EC) and applied into the chip. After trapping the cell, the EC is exchanged by seal enhancer solution (SE) to improve the sealing procedure. When the whole cell configuration is attained, seal enhancer is washed out by the application of EC. The recording is started in EC for 1.5 min. Afterwards DMSO (vehicle control, 0.1% DMSO) is applied and the control current is measured for 3 min. Following control steady-state current, test compound is applied twice at the same concentration and the tail current is measured for 3.5 min each. For the determination of a concentration-relationship, the test compound is applied as a cumulative concentration-response curve and each concentration is measured for 5 min. The reference compound quinidine is treated in the same way. The effect on Kv11.1 (hERG) ion channel activity is judged from the tail current amplitude monitored at −40 mV (current of interest, COI). Results are calculated from the last recorded current traces. Changes in Kv11.1 (hERG) ion channel activity between control value, defined as 100% Kv11.1 (hERG) ion channel activity, application of test compound and application of quinidine is reported as percent change of control value of COI. An aliquot of test compound is collected for concentration verification during the recording. The sample is immediately measured by HPLC and the final compound concentration within the assay is calculated according to a calibration curve.

[2] = target: ATR/ATRIP (Homo sapiens (Human), UniProt Q13535); test: ATR/ATRIP kinase assay (TR-FRET, p53 Ser15 phosphorylation); type: biochemical; details: 0.5 μM ATP, 50 nM p53
How it was run: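 Full-length human ATR/ATRIP co-expressed in mammalian cells (typically 0.3 nM) preincubated with compound 15 min at 22° C, then 50 nM cmyc-p53 and 0.5 μM ATP added for typically 25 min; HEPES pH 8.0 with Mg2+/Mn2+. p53 Ser15 phosphorylation read by HTRF (665/615 ratio); IC50 by nonlinear regression.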

[3] = test system: phosphorylation of Chk1 (Ser 345) in HT29 colon adenocarcinoma cells; test: pCHK1 cellular assay; type: cell-based; details: Homo sapiens, HT-29, hydroxyurea 3 mM, 4 h
How it was run: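 HT29 cells plated ≥20 h, then compound (1 nM–30 μM final) with hydroxyurea (3 mM final) added together for 4 h at 37 °C. After MeOH/Triton fixation-permeabilisation, anti-pChk1 immunostaining plus nuclear stain; nuclear pChk1 imaged by confocal high content reader, reported as % positive nuclei.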

Sequence of Kv11.1 (hERG) ion channel (Q12809 whole entry): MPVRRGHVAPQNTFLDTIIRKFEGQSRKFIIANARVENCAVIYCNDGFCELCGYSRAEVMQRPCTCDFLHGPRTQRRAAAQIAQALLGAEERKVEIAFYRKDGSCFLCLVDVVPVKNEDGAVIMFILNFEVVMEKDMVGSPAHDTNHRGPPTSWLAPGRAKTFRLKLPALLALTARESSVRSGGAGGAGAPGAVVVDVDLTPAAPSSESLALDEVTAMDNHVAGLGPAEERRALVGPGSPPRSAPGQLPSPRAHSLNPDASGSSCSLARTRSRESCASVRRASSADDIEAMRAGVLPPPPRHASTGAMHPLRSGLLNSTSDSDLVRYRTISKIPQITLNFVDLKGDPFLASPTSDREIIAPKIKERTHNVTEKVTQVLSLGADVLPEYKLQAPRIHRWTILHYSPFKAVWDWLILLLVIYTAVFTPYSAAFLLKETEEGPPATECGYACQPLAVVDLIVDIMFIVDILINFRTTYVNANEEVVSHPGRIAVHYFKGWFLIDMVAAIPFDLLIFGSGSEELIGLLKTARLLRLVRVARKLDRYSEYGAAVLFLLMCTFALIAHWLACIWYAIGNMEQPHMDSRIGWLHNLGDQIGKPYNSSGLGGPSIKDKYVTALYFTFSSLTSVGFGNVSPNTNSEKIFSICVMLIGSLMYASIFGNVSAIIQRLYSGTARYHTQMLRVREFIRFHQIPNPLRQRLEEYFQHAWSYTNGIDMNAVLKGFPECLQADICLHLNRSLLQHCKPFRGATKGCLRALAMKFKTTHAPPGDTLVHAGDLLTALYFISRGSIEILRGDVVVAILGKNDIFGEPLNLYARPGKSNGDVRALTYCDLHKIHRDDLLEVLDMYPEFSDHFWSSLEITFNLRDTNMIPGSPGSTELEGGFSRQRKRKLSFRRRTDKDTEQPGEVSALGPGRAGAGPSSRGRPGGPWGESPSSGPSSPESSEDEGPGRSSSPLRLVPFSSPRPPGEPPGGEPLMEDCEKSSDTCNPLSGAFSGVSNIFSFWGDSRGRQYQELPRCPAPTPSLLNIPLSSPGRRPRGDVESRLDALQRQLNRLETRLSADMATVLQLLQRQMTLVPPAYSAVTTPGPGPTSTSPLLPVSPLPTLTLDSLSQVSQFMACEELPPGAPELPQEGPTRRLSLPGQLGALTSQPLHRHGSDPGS
Sequence of ATR/ATRIP (Q13535 whole entry): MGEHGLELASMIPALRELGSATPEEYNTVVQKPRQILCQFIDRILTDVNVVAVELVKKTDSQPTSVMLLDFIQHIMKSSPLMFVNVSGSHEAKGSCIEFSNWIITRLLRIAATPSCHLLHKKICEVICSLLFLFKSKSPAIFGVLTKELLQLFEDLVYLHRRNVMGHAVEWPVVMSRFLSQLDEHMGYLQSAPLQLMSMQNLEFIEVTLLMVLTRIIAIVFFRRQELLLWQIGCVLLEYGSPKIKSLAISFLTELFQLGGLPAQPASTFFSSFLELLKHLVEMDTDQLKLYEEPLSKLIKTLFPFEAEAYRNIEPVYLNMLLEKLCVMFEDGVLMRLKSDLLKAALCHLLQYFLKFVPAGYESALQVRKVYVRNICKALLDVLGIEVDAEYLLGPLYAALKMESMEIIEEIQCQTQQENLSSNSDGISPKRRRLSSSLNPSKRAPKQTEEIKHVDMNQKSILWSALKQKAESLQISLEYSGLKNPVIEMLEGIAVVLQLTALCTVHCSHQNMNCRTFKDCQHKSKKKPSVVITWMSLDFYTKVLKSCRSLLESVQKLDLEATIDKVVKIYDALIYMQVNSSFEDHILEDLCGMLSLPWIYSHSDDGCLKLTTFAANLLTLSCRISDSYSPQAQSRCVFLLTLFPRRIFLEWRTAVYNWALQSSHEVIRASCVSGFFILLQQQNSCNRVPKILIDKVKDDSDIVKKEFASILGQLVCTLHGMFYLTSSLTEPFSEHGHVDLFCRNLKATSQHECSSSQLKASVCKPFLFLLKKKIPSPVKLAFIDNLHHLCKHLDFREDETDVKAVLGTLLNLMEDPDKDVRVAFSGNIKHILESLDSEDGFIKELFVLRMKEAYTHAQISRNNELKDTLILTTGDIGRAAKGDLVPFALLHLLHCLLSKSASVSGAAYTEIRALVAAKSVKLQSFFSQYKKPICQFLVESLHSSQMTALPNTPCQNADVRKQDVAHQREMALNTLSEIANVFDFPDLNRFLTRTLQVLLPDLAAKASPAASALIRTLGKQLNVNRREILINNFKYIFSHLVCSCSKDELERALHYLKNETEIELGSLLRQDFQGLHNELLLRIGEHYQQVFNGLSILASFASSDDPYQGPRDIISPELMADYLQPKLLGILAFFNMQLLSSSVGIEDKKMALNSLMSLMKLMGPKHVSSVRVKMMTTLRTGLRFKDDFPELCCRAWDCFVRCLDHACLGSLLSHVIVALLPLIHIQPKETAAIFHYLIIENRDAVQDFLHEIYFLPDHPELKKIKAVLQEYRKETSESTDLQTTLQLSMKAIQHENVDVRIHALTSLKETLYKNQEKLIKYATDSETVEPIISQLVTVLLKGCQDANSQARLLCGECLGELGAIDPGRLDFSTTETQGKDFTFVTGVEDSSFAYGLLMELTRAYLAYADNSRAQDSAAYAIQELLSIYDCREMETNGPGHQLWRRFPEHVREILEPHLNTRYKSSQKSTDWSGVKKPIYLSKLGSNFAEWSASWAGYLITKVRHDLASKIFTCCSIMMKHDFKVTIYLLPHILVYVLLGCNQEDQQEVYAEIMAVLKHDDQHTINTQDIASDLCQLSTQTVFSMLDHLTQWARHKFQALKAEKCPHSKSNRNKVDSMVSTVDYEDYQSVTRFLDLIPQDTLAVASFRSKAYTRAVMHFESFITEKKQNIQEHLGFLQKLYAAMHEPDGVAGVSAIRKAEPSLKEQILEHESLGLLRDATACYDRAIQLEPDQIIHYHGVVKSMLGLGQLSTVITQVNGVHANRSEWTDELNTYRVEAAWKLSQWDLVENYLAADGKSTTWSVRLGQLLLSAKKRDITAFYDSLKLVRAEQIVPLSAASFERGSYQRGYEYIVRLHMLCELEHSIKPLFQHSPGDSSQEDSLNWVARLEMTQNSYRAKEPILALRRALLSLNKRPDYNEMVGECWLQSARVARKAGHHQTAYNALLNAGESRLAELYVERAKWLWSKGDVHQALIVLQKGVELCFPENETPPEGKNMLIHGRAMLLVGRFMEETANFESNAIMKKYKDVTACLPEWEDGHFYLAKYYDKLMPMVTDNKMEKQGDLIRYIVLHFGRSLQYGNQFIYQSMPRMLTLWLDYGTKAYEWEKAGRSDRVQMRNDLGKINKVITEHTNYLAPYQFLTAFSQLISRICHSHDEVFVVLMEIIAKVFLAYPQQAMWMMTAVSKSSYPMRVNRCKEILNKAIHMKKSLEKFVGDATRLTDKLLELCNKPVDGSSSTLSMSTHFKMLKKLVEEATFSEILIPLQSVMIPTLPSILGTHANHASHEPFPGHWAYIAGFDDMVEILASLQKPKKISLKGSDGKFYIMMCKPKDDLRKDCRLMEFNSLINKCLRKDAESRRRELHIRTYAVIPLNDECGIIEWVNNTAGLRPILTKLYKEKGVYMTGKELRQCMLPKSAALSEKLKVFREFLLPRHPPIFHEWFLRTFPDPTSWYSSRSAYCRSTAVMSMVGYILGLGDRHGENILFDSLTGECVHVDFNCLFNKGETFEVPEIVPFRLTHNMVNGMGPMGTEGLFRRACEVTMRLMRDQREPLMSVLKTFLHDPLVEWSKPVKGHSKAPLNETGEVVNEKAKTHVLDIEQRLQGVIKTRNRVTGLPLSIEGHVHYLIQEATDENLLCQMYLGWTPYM
Sequence of ATR/ATRIP (Q8WXE1 whole entry partner): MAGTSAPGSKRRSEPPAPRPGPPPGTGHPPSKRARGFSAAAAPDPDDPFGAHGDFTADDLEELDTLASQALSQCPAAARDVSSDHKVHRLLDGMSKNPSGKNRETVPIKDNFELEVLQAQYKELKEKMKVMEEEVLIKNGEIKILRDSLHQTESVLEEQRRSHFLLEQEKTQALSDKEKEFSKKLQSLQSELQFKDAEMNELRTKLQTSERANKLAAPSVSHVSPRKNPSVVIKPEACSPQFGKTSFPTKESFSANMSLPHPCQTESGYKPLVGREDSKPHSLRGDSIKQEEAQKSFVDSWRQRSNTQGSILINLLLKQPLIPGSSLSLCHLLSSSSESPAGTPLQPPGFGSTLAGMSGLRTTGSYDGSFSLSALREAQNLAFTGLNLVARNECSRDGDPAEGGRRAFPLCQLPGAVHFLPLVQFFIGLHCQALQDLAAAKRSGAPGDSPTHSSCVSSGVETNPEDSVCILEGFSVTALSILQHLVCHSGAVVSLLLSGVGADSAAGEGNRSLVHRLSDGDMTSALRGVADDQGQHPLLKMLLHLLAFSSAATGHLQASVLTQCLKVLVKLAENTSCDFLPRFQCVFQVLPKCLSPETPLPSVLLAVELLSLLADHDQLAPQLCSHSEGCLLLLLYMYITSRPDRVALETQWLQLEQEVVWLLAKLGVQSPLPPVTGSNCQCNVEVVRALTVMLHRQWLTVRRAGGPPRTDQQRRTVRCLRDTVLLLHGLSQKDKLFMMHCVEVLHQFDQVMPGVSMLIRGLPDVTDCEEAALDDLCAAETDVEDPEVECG

SMILES	IC50 [2]	IC50 [3]	hERG % effect @ conc ([1]; @ 30 μM)	Ki [1]	hERG % effect @ conc ([1]; @ 10 μM)
CC(C)n1cc(-c2cc(N3CCOC[C@H]3C)nc3c(-c4cc[nH]n4)nn(C)c23)cn1 [Compound 18, 7-(1-Isopropyl-1H-pyrazol-4-yl)-1-methyl-5-((R)-3-methyl-morpholin-4-yl)-3-(1H-pyrazol-3-yl)-1H-pyrazolo[4,3-b]pyridine]	6.2 nM	100 to 1000 nM	–	> 10000 nM	−14%
C[C@@H]1COCCN1c1cc(-c2ccc([S+](C)[O-])cc2)c2c(n1)c(-c1cc[nH]n1)nn2C (stereo partly drawn) [Compound 5, 7-(4-Methanesulfinyl-phenyl)-1-methyl-5-((R)-3-methyl-morpholin-4-yl)-3-(1H-pyrazol-3-yl)-1H-pyrazolo[4,3-b]pyridine]	3.5 nM	10 to 100 nM	–	> 10000 nM	−22%
C[C@@H]1COCCN1c1cc(-c2ccc(S(C)(=O)=O)cc2)c2c(n1)c(-c1cc[nH]n1)nn2C [Compound 7, 7-(4-Methanesulfonyl-phenyl)-1-methyl-5-((R)-3-methyl-morpholin-4-yl)-3-(1H-pyrazol-3-yl)-1H-pyrazolo[4,3-b]pyridine]	2.3 nM	10 to 100 nM	–	> 10000 nM	−16%
C[C@@H]1COCCN1c1cc(C2CCOC2)c2c(n1)c(-c1ccn[nH]1)nn2C (stereo partly drawn) [Compound 70, 1-Methyl-5-((R)-3-methyl-morpholin-4-yl)-3-(2H-pyrazol-3-yl)-7-(tetrahydro-furan-3-yl)-1H-pyrazolo[4,3-b]pyridine]	2.2 nM	10 to 100 nM	–	> 10000 nM	−20%
C[C@@H]1COCCN1c1cc(-c2ccnn2CCF)c2c(n1)c(-c1cc[nH]n1)nn2C [Compound 36, 7-[2-(2-Fluoro-ethyl)-2H-pyrazol-3-yl]-1-methyl-5-((R)-3-methyl-morpholin-4-yl)-3-(1H-pyrazol-3-yl)-1H-pyrazolo[4,3-b]pyridine]	0.6 nM	10 to 100 nM	–	> 10000 nM	−9%
C[C@@H]1COCCN1c1ccc2c(n1)c(-c1ccn[nH]1)nn2C [Compound 40, (3R)-3-Methyl-4-[1-methyl-3-(1H-pyrazol-5-yl)-1H-pyrazolo[4,3-b]pyridin-5-yl]morpholine]	50.6 nM	100 to 1000 nM	–	> 10000 nM	9%
C[C@@H]1COCCN1c1cc(C2CCCOC2)c2c(n1)c(-c1ccn[nH]1)nn2C (stereo partly drawn) [Compound 67, 1-Methyl-5-((R)-3-methyl-morpholin-4-yl)-3-(2H-pyrazol-3-yl)-7-(tetrahydro-pyran-3-yl)-1H-pyrazolo[4,3-b]pyridine]	0.8 nM	10 to 100 nM	–	> 10000 nM	−12%

More lines, main results first:

IC50 [2]	IC50 [3]	SMILES	hERG % effect @ conc ([1]; @ 30 μM)	Ki [1]	hERG % effect @ conc ([1]; @ 10 μM)
0.8 nM	10 to 100 nM	C[C@@H]1COCCN1c1cc(C2(S(C)(=O)=O)CC2)c2c(n1)c(-c1cc[nH]n1)nn2C [Compound 26, 7-(1-Methanesulfonyl-cyclopropyl)-1-methyl-5-((R)-3-methyl-morpholin-4-yl)-3-(1H-pyrazol-3-yl)-1H-pyrazolo[4,3-b]pyridine]	−24%	> 30000 nM	–
1.3 nM	< 10 nM	Cc1cc(S(C)(=O)=O)ccc1-c1cc(N2CCOC[C@H]2C)nc2c(-c3cc[nH]n3)nn(C)c12 [Compound 50, (3R)-4-[7-(4-Methanesulfonyl-2-methylphenyl)-1-methyl-3-(1H-pyrazol-3-yl)-1H-pyrazolo[4,3-b]pyridin-5-yl]-3-methylmorpholine]	–	> 10000 nM	−17%
2.3 nM	10 to 100 nM	Cc1ccc(-c2cc(N3CCOC[C@H]3C)nc3c(-c4cc[nH]n4)nn(C)c23)cn1 [Compound 1, 1-Methyl-5-((R)-3-methyl-morpholin-4-yl)-7-(6-methyl-pyridin-3-yl)-3-(1H-pyrazol-3-yl)-1H-pyrazolo[4,3-b]pyridine]	−28%	> 30000 nM	–
3.4 nM	10 to 100 nM	Cc1nn(C)cc1-c1cc(N2CCOC[C@H]2C)nc2c(-c3cc[nH]n3)nn(C)c12 [Compound 19, 7-(1,3-Dimethyl-1H-pyrazol-4-yl)-1-methyl-5-((R)-3-methyl-morpholin-4-yl)-3-(1H-pyrazol-3-yl)-1H-pyrazolo[4,3-b]pyridine]	–	> 10000 nM	−6%
4.3 nM	10 to 100 nM	C[C@@H]1COCCN1c1cc(C(C)(C)O)c2c(n1)c(-c1cc[nH]n1)nn2C [Compound 25, 2-[1-Methyl-5-((R)-3-methyl-morpholin-4-yl)-3-(1H-pyrazol-3-yl)-1H-pyrazolo[4,3-b]pyridin-7-yl]-propan-2-ol]	–	> 10000 nM	−1%
0.6 nM	10 to 100 nM	C[C@@H]1COCCN1c1cc(-c2ccnc3[nH]ccc23)c2c(n1)c(-c1cc[nH]n1)nn2C [Compound 15, 1-Methyl-5-((R)-3-methyl-morpholin-4-yl)-3-(1H-pyrazol-3-yl)-7-(1H-pyrrolo[2,3-b]pyridin-4-yl)-1H-pyrazolo[4,3-b]pyridine]	–	> 10000 nM	−24%
0.8 nM	10 to 100 nM	Cc1ncccc1-c1cc(N2CCOC[C@H]2C)nc2c(-c3cc[nH]n3)nn(C)c12 [Compound 4, 1-Methyl-5-((R)-3-methyl-morpholin-4-yl)-7-(2-methyl-pyridin-3-yl)-3-(1H-pyrazol-3-yl)-1H-pyrazolo[4,3-b]pyridine]	–	> 10000 nM	−12%
0.6 nM	10 to 100 nM	C[C@@H]1COCCN1c1cc(-c2ccnn2C)c2c(n1)c(-c1cc[nH]n1)nn2C [Compound 61, (3R)-3-Methyl-4-[1-methyl-7-(1-methyl-1H-pyrazol-5-yl)-3-(1H-pyrazol-3-yl)-1H-pyrazolo[4,3-b]pyridin-5-yl]morpholine]	−12%	> 30000 nM	–
0.5 nM	10 to 100 nM	Cc1ccccc1-c1cc(N2CCOC[C@H]2C)nc2c(-c3cc[nH]n3)n[nH]c12 [Compound 35, (3R)-3-Methyl-4-[7-(2-methylphenyl)-3-(1H-pyrazol-3-yl)-1H-pyrazolo[4,3-b]pyridin-5-yl]morpholine]	–	> 10000 nM	−23%
2.2 nM	10 to 100 nM	C[C@@H]1COCCN1c1cc(C2=CCOCC2)c2c(n1)c(-c1cc[nH]n1)nn2C [Compound 54, (3R)-4-[7-(3,6-Dihydro-2H-pyran-4-yl)-1-methyl-3-(1H-pyrazol-3-yl)-1H-pyrazolo[4,3-b]pyridin-5-yl]-3-methylmorpholine]	–	> 10000 nM	−2%
